Values after ≈ are worked out from the molar mass of the structure shown.

Here are results for three compounds from US7659308B2, “Concentricolide and its derivatives, process for preparing them, pharmaceutical composition comprising the same and its use” (Kunming Institute of Botany, The Chinese Academy of Sciences, priority 2003, dated 2010).

Holding throughout (assay type): cell-based
One data set concerns C8166 cells. Description: Cytotoxicity on C8166 cells (MTT colorimetric assay). To be noted: 72 h. The protocol: (§1) C8166 was one of the host cells for HIV-1. 100 μl of 4×10^5/ml cells were seeded on microtiter plate, 100 μl of various concentrations of concentricolide were added and incubated at 37° C. in a humidified atmosphere of 5% CO2 for 72 h. The cellular toxicity was assessed by MTT calorimetric assay. The plates were read on Bio-Tek ELx 800 ELISA reader at 595/630 nm (OD595/630 nm). 50% cytotoxic concentration (CC50) was calculated as follows: Cell viability %=(ODexp−ODblank)/(ODcontrol−ODblank)×100.
(Formazan colour is commonly taken as a measure of viable cells.)

The next data set deals with HIV-1IIIB. As to the kind of experiment: Cytopathic effect (CPE) inhibition assay on HIV-1 infected C8166 cells. The protocol: To 100 μl of a culture medium containing corresponding concentration of concentricolide A from example 1 were added C8166 cells (4×10^5/ml) and HIV-1IIIB at a multiplicity of infection (M.O.I) of 0.06. The final volume was 200 μl. AZT was used as positive drug control. The plates were incubated in a humidified incubator at 37° C. and 5% CO2. After 3 days of culture, the cytopathic effect was measured by counting the number of syncytia in each well under an inverted microscope. EC50 (50% Effective Concentration) was the compound concentration inhibiting 50% of syncytia formation. The cytopathic effect (CPE) inhibition %=(1-number of syncytiaexp/number of syncytiacontrol)×100.

Data set [1] deals with binding and fusion between HIV-1 and cells. As to the kind of experiment: microbe, parasite or virus in culture. To be noted: C8166 + HIV-1 chronically infected H9 cells, 24 h, syncytia formation. The text has this: When HIV infected cells were co-cultured with normal T lymphocyte cells, the exterior envelope glycoprotein gp120 expressed on infected cells was bound to the cellular CD4 receptor of the uninfected CD4^+ cells, following fusion of cells and formation of syncytia. Compounds target to this site would inhibit the syncytia formation. Thus, this method could be used to detect whether the compounds have effect on binding and fusion between virus and host cell. Concentricolide A in example 1 was diluted by five fold on 96-well microtiter plate, 3 repeated wells in each gradient, 100 μl per well. Negative control well free of compounds and T-20 positive control well were set up. Then, 50 μl of C8166 cells at logarithmic growth period (6×10^5/ml) and 50 μl of HIV-1 chronically infected H9 cells (2×10^5/ml) were added in each well. The plate was cultured in a humidified incubator at 37° C. and 5% CO2 for 24 h, and the syncytial formation was observed under microscope to deduce whether Concentricolide A blocks the fusion process of virus and cell .

Data set [2] can be described thus: Cytotoxicity on C8166 cells (MTT colorimetric assay). To be noted: human, read-out: CC50 (50% cytotoxic concentration). Here is the method:
as §1

Consider `Cc1cn([C@H]2C[C@H](N=[N+]=[N-])[C@@H](CO)O2)c(=O)[nH]c1=O` [AZT, 3P-azido-3P-deoxythymidine, reference compound], for which the “CC50 (50% cytotoxic concentration)” value with C8166 cells came to 258.88 µg/mL (≈ 969 µM). In addition, the “EC50, inhibition of cytopathic effect (CPE) of HIV-1” value in the data set on HIV-1IIIB (C8166 cells, HIV-1IIIB M.O.I. 0.06, 3 days, syncytia count) was determined as 0.092 µg/mL.
As to enfuvirtide, in data set [1] (positive control), the “EC50, blockage of fusion of HIV-1 infected cells” value was found to be 0.00602 µg/mL.
Broadly, the EC50 is the concentration needed to bring the measured effect to its halfway point. As to `CC[C@@H]1OC(=O)c2c1ccc1ccoc21` [concentricolide A], the EC50 came to 0.83 µg/mL in data set [1] (Human immunodeficiency virus 1, read-out: EC50, blockage of binding and fusion between HIV-1 and cells); 0.31 µg/mL (≈ 1.53 µM) in the data set with HIV-1IIIB (Human immunodeficiency virus 1, 72 h, C8166 cells, HIV-1IIIB M.O.I. 0.06, 3 days, syncytia count). In addition, the CC50 at 72 h in data set [2] turned out to be 76.7 µg/mL (≈ 379 µM). Moreover, the “selected index (S.I.)” value in the data set on HIV-1IIIB (against HIV-1 in vitro) turned out to be 222.
